≈ marks a conversion by molar mass, not a printed value.

One assay deals with Klebsiella pneumoniae. The experiment in a line: Antimicrobial activity against Klebsiella pneumoniae AH24-270 expressing blaCTX-M-71 gene by agar dilution method.
Details: not given
The assay is classed as functional.
By MIC is commonly meant the lowest concentration that inhibits growth of the organism. `CO/N=C(\C(=O)N[C@@H]1C(=O)N2C(C(=O)O)=C(COC(N)=O)CS[C@H]12)c1ccco1` [CEFUROXIME] displayed a minimal inhibitory concentration (MIC) greater than 512 µg/mL.
`CC(C)(O/N=C(\C(=O)N[C@@H]1C(=O)N2C(C(=O)[O-])=C(C[n+]3ccccc3)CS[C@H]12)c1csc(N)n1)C(=O)O` [CEFTAZIDIME] had an MIC of 16 µg/mL (≈ 29.3 µM).
On the same count and under the same terms, next, `CCN1CCN(C(=O)N[C@@H](C(=O)N[C@@H]2C(=O)N3[C@@H]2SC(C)(C)[C@@H]3C(=O)O)c2ccccc2)C(=O)C1=O` [PIPERACILLIN]: greater than 256 µg/mL.

In a further assay the test system is Escherichia coli. The experiment in a line: Antimicrobial activity against Escherichia coli K-12 transconjugant harboring blaCTX-M-71 gene by agar dilution method.
Details: not given
The assay is classed as functional. In general terms: In agar dilution the substance is mixed into plates at graded concentrations.
The molecule `CO/N=C(\C(=O)N[C@@H]1C(=O)N2C(C(=O)O)=C(COC(N)=O)CS[C@H]12)c1ccco1` [CEFUROXIME] displayed a minimum inhibitory concentration (MIC) of 256 µg/mL (≈ 603 µM).
Still for that read-out and setting: next, `CC(C)(O/N=C(\C(=O)N[C@@H]1C(=O)N2C(C(=O)[O-])=C(C[n+]3ccccc3)CS[C@H]12)c1csc(N)n1)C(=O)O` [CEFTAZIDIME]: 4 µg/mL (≈ 7.32 µM); `CCN1CCN(C(=O)N[C@@H](C(=O)N[C@@H]2C(=O)N3[C@@H]2SC(C)(C)[C@@H]3C(=O)O)c2ccccc2)C(=O)C1=O` [PIPERACILLIN]: greater than 256 µg/mL.

A further assay deals with Escherichia coli. The experiment in a line: Antimicrobial activity against Escherichia coli K-12 by agar dilution method. The assay is classed as functional.
Details: not given
Take `CO/N=C(\C(=O)N[C@@H]1C(=O)N2C(C(=O)O)=C(COC(N)=O)CS[C@H]12)c1ccco1` [CEFUROXIME]: the minimum inhibitory concentration (MIC) came to 2 µg/mL (≈ 4.71 µM).
In the case of `CC(C)(O/N=C(\C(=O)N[C@@H]1C(=O)N2C(C(=O)[O-])=C(C[n+]3ccccc3)CS[C@H]12)c1csc(N)n1)C(=O)O` [CEFTAZIDIME], the MIC came to 0.06 µg/mL (≈ 0.11 µM).
Still for that read-out and setting: with `CCN1CCN(C(=O)N[C@@H](C(=O)N[C@@H]2C(=O)N3[C@@H]2SC(C)(C)[C@@H]3C(=O)O)c2ccccc2)C(=O)C1=O` [PIPERACILLIN] the figure was 1 µg/mL (≈ 1.93 µM).

The next assay concerns Escherichia coli. The experiment in a line: Antimicrobial activity against Escherichia coli DH5[alpha] harboring pBC-CTX-M-71 plasmid by agar dilution method. It counts as functional.
Details: not given
The molecule `CO/N=C(\C(=O)N[C@@H]1C(=O)N2C(C(=O)O)=C(COC(N)=O)CS[C@H]12)c1ccco1` [CEFUROXIME] gave a minimum inhibitory concentration (MIC) of 512 µg/mL (≈ 1210 µM).
Still for that read-out and setting: next, `CC(C)(O/N=C(\C(=O)N[C@@H]1C(=O)N2C(C(=O)[O-])=C(C[n+]3ccccc3)CS[C@H]12)c1csc(N)n1)C(=O)O` [CEFTAZIDIME]: 8 µg/mL (≈ 14.6 µM).
Consider `CCN1CCN(C(=O)N[C@@H](C(=O)N[C@@H]2C(=O)N3[C@@H]2SC(C)(C)[C@@H]3C(=O)O)c2ccccc2)C(=O)C1=O` [PIPERACILLIN], for which the MIC came out at 256 µg/mL (≈ 495 µM).

The next assay has as its system Escherichia coli. Nature of the assay: Antimicrobial activity against Escherichia coli DH5[alpha] harboring pBC-CTX-M-15 plasmid by agar dilution method. It counts as functional.
Details: not given
As for `CO/N=C(\C(=O)N[C@@H]1C(=O)N2C(C(=O)O)=C(COC(N)=O)CS[C@H]12)c1ccco1` [CEFUROXIME], the MIC was greater than 512 µg/mL.
For the molecule `CC(C)(O/N=C(\C(=O)N[C@@H]1C(=O)N2C(C(=O)[O-])=C(C[n+]3ccccc3)CS[C@H]12)c1csc(N)n1)C(=O)O` [CEFTAZIDIME], 64 µg/mL (≈ 117 µM) was the least that counted as inhibitory (MIC).
On the same count and under the same terms, with `CCN1CCN(C(=O)N[C@@H](C(=O)N[C@@H]2C(=O)N3[C@@H]2SC(C)(C)[C@@H]3C(=O)O)c2ccccc2)C(=O)C1=O` [PIPERACILLIN] the figure was greater than 256 µg/mL.

Another assay concerns Escherichia coli. The experiment in a line: Antimicrobial activity against Escherichia coli DH5[alpha] by agar dilution method. The assay is classed as functional.
Details: not given
In the case of `CO/N=C(\C(=O)N[C@@H]1C(=O)N2C(C(=O)O)=C(COC(N)=O)CS[C@H]12)c1ccco1` [CEFUROXIME], the minimal inhibitory concentration (MIC) was 4 µg/mL (≈ 9.43 µM).
Still for that read-out and setting: next, `CC(C)(O/N=C(\C(=O)N[C@@H]1C(=O)N2C(C(=O)[O-])=C(C[n+]3ccccc3)CS[C@H]12)c1csc(N)n1)C(=O)O` [CEFTAZIDIME]: 0.13 µg/mL (≈ 0.238 µM); `CCN1CCN(C(=O)N[C@@H](C(=O)N[C@@H]2C(=O)N3[C@@H]2SC(C)(C)[C@@H]3C(=O)O)c2ccccc2)C(=O)C1=O` [PIPERACILLIN]: 2 µg/mL (≈ 3.86 µM).

The next assay concerns Klebsiella pneumoniae. Nature of the assay: Antimicrobial activity against Klebsiella pneumoniae AH24-270 expressing blaCTX-M-71 gene by agar dilution method in presence of beta-lactamase inhibitor Tazobactam. It counts as functional.
Details: not given
Turning to `CCN1CCN(C(=O)N[C@@H](C(=O)N[C@@H]2C(=O)N3[C@@H]2SC(C)(C)[C@@H]3C(=O)O)c2ccccc2)C(=O)C1=O` [PIPERACILLIN], the MIC was greater than 256 µg/mL.

The test system of another assay is Escherichia coli. Nature of the assay: Antimicrobial activity against Escherichia coli K-12 transconjugant harboring blaCTX-M-71 gene by agar dilution method in presence of beta-lactamase inhibitor Tazobactam. The assay is classed as functional.
Details: not given
For the molecule `CCN1CCN(C(=O)N[C@@H](C(=O)N[C@@H]2C(=O)N3[C@@H]2SC(C)(C)[C@@H]3C(=O)O)c2ccccc2)C(=O)C1=O` [PIPERACILLIN], the minimal inhibitory concentration (MIC) came out at 16 µg/mL.

The subject of another assay is Escherichia coli. The experiment in a line: Antimicrobial activity against Escherichia coli K-12 by agar dilution method in presence of beta-lactamase inhibitor Tazobactam. It counts as functional.
Details: not given
In the case of `CCN1CCN(C(=O)N[C@@H](C(=O)N[C@@H]2C(=O)N3[C@@H]2SC(C)(C)[C@@H]3C(=O)O)c2ccccc2)C(=O)C1=O` [PIPERACILLIN], the minimum inhibitory concentration (MIC) stood at 1 µg/mL.

The next assay relates to Escherichia coli. The experiment in a line: Antimicrobial activity against Escherichia coli DH5alpha harboring pBC-CTX-M-71 plasmid by agar dilution method in presence of beta-lactamase inhibitor Tazobactam. It counts as functional. To be noted: DH5[alpha].
With `CCN1CCN(C(=O)N[C@@H](C(=O)N[C@@H]2C(=O)N3[C@@H]2SC(C)(C)[C@@H]3C(=O)O)c2ccccc2)C(=O)C1=O` [PIPERACILLIN], the MIC worked out at 2 µg/mL.

A further assay relates to Escherichia coli. Nature of the assay: Antimicrobial activity against Escherichia coli DH5alpha harboring pBC-CTX-M-15 plasmid by agar dilution method in presence of beta-lactamase inhibitor Tazobactam. It counts as functional. To be noted: DH5[alpha].
Regarding `CCN1CCN(C(=O)N[C@@H](C(=O)N[C@@H]2C(=O)N3[C@@H]2SC(C)(C)[C@@H]3C(=O)O)c2ccccc2)C(=O)C1=O` [PIPERACILLIN], the MIC stood at 2 µg/mL.

In the next assay the test system is Escherichia coli. Nature of the assay: Antimicrobial activity against Escherichia coli DH5alpha by agar dilution method in presence of beta-lactamase inhibitor Tazobactam. The assay is classed as functional. To be noted: DH5[alpha].
Turning to `CCN1CCN(C(=O)N[C@@H](C(=O)N[C@@H]2C(=O)N3[C@@H]2SC(C)(C)[C@@H]3C(=O)O)c2ccccc2)C(=O)C1=O` [PIPERACILLIN], the MIC worked out at 1 µg/mL.

Another assay relates to Klebsiella pneumoniae. Nature of the assay: Antimicrobial activity against Klebsiella pneumoniae AH24-270 expressing blaCTX-M-71 gene by agar dilution method in presence of beta-lactamase inhibitor clavulanic acid.
Details: not given
It counts as functional.
With `CC(C)(O/N=C(\C(=O)N[C@@H]1C(=O)N2C(C(=O)[O-])=C(C[n+]3ccccc3)CS[C@H]12)c1csc(N)n1)C(=O)O` [CEFTAZIDIME], the minimum inhibitory concentration (MIC) was found to be 4 µg/mL.

The subject of a further assay is Escherichia coli. The experiment in a line: Antimicrobial activity against Escherichia coli K-12 transconjugant harboring blaCTX-M-71 gene by agar dilution method in presence of beta-lactamase inhibitor clavulanic acid. It counts as functional.
Details: not given
For `CC(C)(O/N=C(\C(=O)N[C@@H]1C(=O)N2C(C(=O)[O-])=C(C[n+]3ccccc3)CS[C@H]12)c1csc(N)n1)C(=O)O` [CEFTAZIDIME], the MIC came to 0.25 µg/mL.

A further assay has as its system Escherichia coli. Nature of the assay: Antimicrobial activity against Escherichia coli K-12 by agar dilution method in presence of beta-lactamase inhibitor clavulanic acid. It counts as functional.
Details: not given
As for `CC(C)(O/N=C(\C(=O)N[C@@H]1C(=O)N2C(C(=O)[O-])=C(C[n+]3ccccc3)CS[C@H]12)c1csc(N)n1)C(=O)O` [CEFTAZIDIME], the minimal inhibitory concentration (MIC) was found to be 0.06 µg/mL.

For another assay, the system named is Escherichia coli. Nature of the assay: Antimicrobial activity against Escherichia coli DH5alpha harboring pBC-CTX-M-71 plasmid by agar dilution method in presence of beta-lactamase inhibitor clavulanic acid. The assay is classed as functional. To be noted: DH5[alpha].
In the case of `CC(C)(O/N=C(\C(=O)N[C@@H]1C(=O)N2C(C(=O)[O-])=C(C[n+]3ccccc3)CS[C@H]12)c1csc(N)n1)C(=O)O` [CEFTAZIDIME], the minimal inhibitory concentration (MIC) was determined as 0.25 µg/mL.

The next assay relates to Escherichia coli. Nature of the assay: Antimicrobial activity against Escherichia coli DH5alpha harboring pBC-CTX-M-15 plasmid by agar dilution method in presence of beta-lactamase inhibitor clavulanic acid. The assay is classed as functional. To be noted: DH5[alpha].
With `CC(C)(O/N=C(\C(=O)N[C@@H]1C(=O)N2C(C(=O)[O-])=C(C[n+]3ccccc3)CS[C@H]12)c1csc(N)n1)C(=O)O` [CEFTAZIDIME], the MIC worked out at 0.25 µg/mL.

For the next assay, the system named is Escherichia coli. The experiment in a line: Antimicrobial activity against Escherichia coli DH5alpha by agar dilution method in presence of beta-lactamase inhibitor clavulanic acid. To be noted: DH5[alpha]. The assay is classed as functional.
In the case of `CC(C)(O/N=C(\C(=O)N[C@@H]1C(=O)N2C(C(=O)[O-])=C(C[n+]3ccccc3)CS[C@H]12)c1csc(N)n1)C(=O)O` [CEFTAZIDIME], the MIC came to 0.06 µg/mL.

The record behind these values is ChEMBL document CHEMBL1649220, “New variant of CTX-M-type extended-spectrum beta-lactamases, CTX-M-71, with a Gly238Cys substitution in a Klebsiella pneumoniae isolate from Bulgaria” (2009).
